Laboratory results published in patent US12649739B2, “Imidazoquinoline compound having anti-inflammatory, antifugal, antiparasitic, and anticancer activity” (PHARMA CINQ, LLC, priority 2020, dated 2026).

Key:
C. neoformans = details: in vitro, maximal inhibition
[1] = test system: PC3 (prostate cancer) cell line; assay: Cell viability, WST-1 assay, PC3 cells; format: cell-based; details: 48 and 72 hours, WST-1, FIGS. 3 and 4
[2] = test system: imiquimod-induced dermatitis; assay: Imiquimod-induced psoriasiform dermatitis in mice, topical ointment; format: in vivo
[3] = test system: A549 (lung cancer) cell line; assay: Cell viability, WST-1 assay, A549 cells; format: cell-based; details: 48 and 72 hours, WST-1, FIGS. 1 and 2

Structure (SMILES)	inhibition of C. neoformans growth (ceiling) (C. neoformans)	doses reducing cancer cell viability, relative to those required for similar reductions by compound AF [1]	ear thickness (caliper measurements) ([2]; female Balb/C mice, 0.01% ointment topically on ears, started day 5 of imiquimod, FIG. 5)	PASI scoring (erythema, thickening, scaling, cumulative) ([2]; female Balb/C mice, 0.01% ointment topically on ears, started day 5 of imiquimod, FIGS. 6A-D)	efficacy in model of psoriasiform dermatitis ([2]; ointment concentration of 0.01%)	doses reducing cancer cell viability, relative to those required for similar reductions by compound AF [3]
CCN(CC)CCCC(C)Nc1ccnc2cc(Cl)ccc12 (stereo not drawn) [Chloroquine]	about 40%	–	–	–	–	–
c1ccc(Oc2cccc(Cc3nc4cnc5ccccc5c4[nH]3)c2)cc1 [Compound GE, 2-(3-Phenoxybenzyl)-1H-imidazo[4,5-c]quinoline]	–	approximately 1/10	reduced imiquimod-induced inflammatory damage to mouse ears	reducing all three aspects of dermal inflammation captured by the PASI scoring system	effective	approximately 1/10
